In ChEMBL document CHEMBL5154893, “Design, Synthesis, and Biological Evaluation of Potent 20S Proteasome Activators for the Potential Treatment of α-Synucleinopathies” (J Med Chem, 2022):

Assays:
[1] = target: T1, 20S proteasome (Homo sapiens) (UniProt P49721+P20618+P28074+P28062+P28065+P28072+P25786+P25787+P25788+P25789+P28066+P60900+O14818+Q8TAA3+P40306+A5LHX3+P49720+P28070+Q99436); assay: Activation of human 20S proteosome at trypsin-like site assessed as substrate degradation using Boc-LLR-AMC as flurogenic substrate preincubated for 15 mins followed by substrate addition and measured after 1 hr by spectrometric analysis; format: protein-complex assay
[2] = target: T1, 20S proteasome (Homo sapiens); assay: Activation of human 20S proteosome at caspase-like site assessed as substrate degradation using Z-LLE-AMC as flurogenic substrate preincubated for 15 mins followed by substrate addition and measured after 1 hr by spectrometric analysis; format: protein-complex assay
[3] = target: T1, 20S proteasome (Homo sapiens); assay: Activation of human 20S proteosome at chymotrypsin like site assessed as substrate degradation using Suc-LLVY-AMC as flurogenic substrate preincubated for 15 mins followed by substrate addition and measured after 1 hr by spectrometric analysis; format: protein-complex assay
[4] = target: T1, 20S proteasome (Homo sapiens); assay: Activation of human 20S proteosome assessed as substrate degradation using Suc-LLVY-AMC/Z-LLE-AMC/Boc-LLR-AMC as flurogenic substrate preincubated for 15 mins followed by substrate addition and measured after 1 hr by spectrometric analysis; format: protein-complex assay
[5] = target: T1, 20S proteasome (Homo sapiens); assay: Activation of human 20S proteosome at trypsin-like site assessed as maximum fold change in substrate degradation using Boc-LLR-AMC as flurogenic substrate preincubated for 15 mins followed by substrate addition and measured after 1 hr by spectrometric analysis relative to control; format: protein-complex assay; settings: filed as activator
[6] = target: T1, 20S proteasome (Homo sapiens); assay: Activation of human 20S proteosome at caspase-like site assessed as maximum fold change in substrate degradation using Z-LLE-AMC as flurogenic substrate preincubated for 15 mins followed by substrate addition and measured after 1 hr by spectrometric analysis relative to control; format: protein-complex assay; settings: filed as activator
[7] = target: T1, 20S proteasome (Homo sapiens); assay: Activation of human 20S proteosome assessed as maximum fold change in substrate degradation using Suc-LLVY-AMC/Z-LLE-AMC/Boc-LLR-AMC as flurogenic substrate preincubated for 15 mins followed by substrate addition and measured after 1 hr by spectrometric analysis relative to control; format: protein-complex assay; settings: filed as activator
Homo sapiens [8] = species: Homo sapiens; assay: Activation of human 20S-proteosome mediated degradation of full length wild type alpha-synuclein at 10 uM incubated for 45 mins by Western blot analysis relative to control
HEK293T [9] = assay: Activation of 20S proteasome mediated full length alpha-synuclein A53T mutant degradation expressed in HEK293T cells assessed as residual protein at 5 uM incubated for 24 hrs by Western blot analysis relative to control; format: cell-based; settings: Homo sapiens
Homo sapiens [10] = species: Homo sapiens; assay: Activation of human 20S-proteosome mediated full length alpha-synuclein degradation by measuring remaining protein at 10 uM incubated for 45 mins by Western blot analysis relative to control
Homo sapiens [11] = species: Homo sapiens; assay: Activation of human 20S-proteosome mediated full length alpha-synuclein degradation by measuring remaining protein at 5 uM incubated for 45 mins by Western blot analysis relative to control
Homo sapiens [12] = species: Homo sapiens; assay: Activation of human 20S-proteosome mediated full length alpha-synuclein degradation by measuring remaining protein at 15 uM incubated for 45 mins by Western blot analysis relative to control
HEK-293T = assay: Cytotoxicity in human HEK293T cells assessed as reduction in cell viability at 15 uM incubated for 16 hrs by CellTiter-glo assay; format: toxicity, cell-based
[13] = target: T1, 20S proteasome (Homo sapiens); assay: Activation of human 20S proteosome at chymotrypsin like site assessed as maximum fold change in substrate degradation using Suc-LLVY-AMC as flurogenic substrate preincubated for 15 mins followed by substrate addition and measured after 1 hr by spectrometric analysis relative to control; format: protein-complex assay; settings: filed as activator
Homo sapiens [14] = species: Homo sapiens; assay: Activation of human 20S-proteosome mediated full length alpha-synuclein degradation by measuring remaining protein at 2.5 uM incubated for 45 mins by Western blot analysis relative to control
Homo sapiens [15] = species: Homo sapiens; assay: Activation of human 20S-proteosome mediated degradation of full length wild type alpha-synuclein at 15 uM incubated for 45 mins by Western blot analysis relative to control; settings: filed as activator
Homo sapiens [16] = species: Homo sapiens; assay: Activation of human 26S proteosome assessed as increase in fold change in proteolytic degradation using SUC-ANW-AMC/Z-LLE-AMC/Boc-LRRAMC as flurogenic substrate at 80 uM preincubated for 15 mins followed by substrate addition and measured after 1 hr by spectrometric analysis relative to control; settings: filed as activator
HEK293T [17] = assay: Activation of 20S proteasome mediated full length alpha-synuclein A53T mutant degradation expressed in HEK293T cells assessed as residual protein at 15 uM incubated for 24 hrs by Western blot analysis relative to control; format: cell-based; settings: Homo sapiens, filed as activator

| SMILES | EC200 [1] | EC200 [2] | EC200 [3] | EC200 [4] | fold change (FC) [5] | EC200 ([1]; filed as activator) | fold change (FC) [6] | EC200 ([2]; filed as activator) | fold change (FC) [7] | EC200 ([4]; filed as activator) | fold change (FC) [13] | EC200 ([3]; filed as activator) | further results |
| --- | --- | --- | --- | --- | --- | --- | --- | --- | --- | --- | --- | --- | --- |
| N#CCCCCN1c2ccccc2Sc2ccc(Cl)cc21 | > 80 µM | > 80 µM | > 80 µM | > 80 µM | – | – | – | – | – | – | – | – | – |
| COc1cccc(CN2c3ccccc3Sc3ccc(Cl)cc32)c1 | – | – | > 80 µM | – | 2 | 5.4 µM | 4 | 1.3 µM | 4 | 1.5 µM | – | – | – |
| CN(C)CCCN1c2ccccc2Sc2ccc(Cl)cc21 | > 80 µM | > 80 µM | – | – | – | – | – | – | 4 | 13.5 µM | 8 | 7 µM | Activity (Homo sapiens [15]): 80%; Activity (Homo sapiens [12]; filed as activator): 34%; fold change (FC) (Homo sapiens [16]): 2 |
| COC(=O)c1ccc(CN2c3ccccc3Sc3ccc(Cl)cc32)cc1 | – | – | – | – | 15 | 2.6 µM | 7 | 2.7 µM | 9 | 1.4 µM | 1.2 | 1.9 µM | Activity (Homo sapiens [12]; filed as activator): 33%; Activity (HEK293T [17]): 25%; fold change (FC) (Homo sapiens [16]): 2 |
| Clc1ccc2c(c1)N(Cc1ccccc1)c1ccccc1S2 | – | > 80 µM | – | – | 2 | 3.1 µM | – | – | 2 | 1.5 µM | 3 | 2.8 µM | – |
| Nc1cccc(CN2c3ccccc3Sc3ccc(Cl)cc32)c1 | – | – | – | – | 10 | 9.2 µM | 10 | 3.8 µM | 8 | 3.6 µM | 9 | 6.5 µM | – |
| O=[N+]([O-])c1cccc(CN2c3ccccc3Sc3ccc(Cl)cc32)c1 | – | – | – | – | 8 | 1.6 µM | 12 | 1.2 µM | 8 | 1.1 µM | 9 | 1.1 µM | – |
| CC(=O)Oc1ccc(CN2c3ccccc3Sc3ccc(Cl)cc32)cc1 | > 80 µM | > 80 µM | > 80 µM | > 80 µM | – | – | – | – | – | – | – | – | – |
| COC(=O)c1cccc(CN2c3ccccc3Sc3ccc(Cl)cc32)c1 | – | – | – | – | 8 | 1.9 µM | 4 | 9.7 µM | 6 | 2.4 µM | 6 | 2.4 µM | – |
| CN(C)C(=O)CCN1c2ccccc2Sc2ccc(Cl)cc21 | > 80 µM | > 80 µM | > 80 µM | > 80 µM | – | – | – | – | – | – | – | – | – |
| CCOC(=O)[C@]1(c2ccccc2)N=C(c2ccc(OC)cc2)N(Cc2ccccc2)[C@@H]1c1ccc(NCc2ccccc2)cc1 | – | – | – | – | – | – | – | – | – | – | – | – | Activity (Homo sapiens [12]): 22% |

Further lines, with some results ahead:

| EC200 [1] | EC200 [2] | EC200 [3] | EC200 [4] | fold change (FC) [5] | EC200 ([1]; filed as activator) | fold change (FC) [6] | EC200 ([2]; filed as activator) | fold change (FC) [7] | EC200 ([4]; filed as activator) | fold change (FC) [13] | EC200 ([3]; filed as activator) | SMILES | further results |
| --- | --- | --- | --- | --- | --- | --- | --- | --- | --- | --- | --- | --- | --- |
| – | – | – | – | 6 | 0.3 µM | 9.4 | 1.8 µM | 11 | 0.4 µM | 9.4 | 0.7 µM | O=C(CCN1c2ccccc2Sc2ccc(Cl)cc21)N(c1ccc(F)cc1)c1ccc(F)cc1 | Activity (Homo sapiens [8]): 73%; Activity (HEK293T [9]): 67%; Activity (Homo sapiens [10]): 27%; Activity (Homo sapiens [11]): 51%; Activity (Homo sapiens [12]): 19%; Activity (HEK-293T): > 80%; Activity (Homo sapiens [14]): 69% |
| > 80 µM | > 80 µM | > 80 µM | > 80 µM | – | – | – | – | – | – | – | – | NC(=O)CCCCN1c2ccccc2Sc2ccc(Cl)cc21 | – |
| > 80 µM | > 80 µM | > 80 µM | > 80 µM | – | – | – | – | – | – | – | – | CN(C(=O)CCN1c2ccccc2Sc2ccc(Cl)cc21)c1ccc(F)cc1 | – |
| > 80 µM | > 80 µM | > 80 µM | > 80 µM | – | – | – | – | – | – | – | – | CC(C)(C)OC(=O)c1ccc(CN2c3ccccc3Sc3ccc(Cl)cc32)cc1 | – |
| – | > 80 µM | > 80 µM | – | 2 | 80 µM | – | – | 2.5 | 40 µM | – | – | O=C(CCN1c2ccccc2Sc2ccc(Cl)cc21)Nc1ccccc1 | – |
| > 80 µM | > 80 µM | > 80 µM | > 80 µM | – | – | – | – | – | – | – | – | Oc1ccc(CN2c3ccccc3Sc3ccc(Cl)cc32)cc1 | – |
